Earlier results, collected in US20050175959A1, “System for the controlled delivery of an active material to a dental site” (Coll Partners Ltd., priority 2000, published 2005).

Conditions: in vivo

For `F` [fluoride], which “acute lethal dose of fluoride (F)” value is on record?
Its value is 33 mg F/Kg body weight.

And the chronic toxicity?
The chronic toxicity was 0.1 mg F/Kg.
